Where a SMILES comes first, the peptide text is derived from it. [ ]: non-standard residue; d: D form. Thz = O=C(O)[C@@H]1CSCN1
What was measured:
Chymotrypsin [1] = target: T1, Chymotrypsin (Bos taurus, UniProt P00766); experiment: Lineweaver-Burk plot of the substrate peptide (degradation by chymotrypsin); format: biochemical; conditions: 30 minutes at 37° C.
Description: Into 1 mL of a 0.1 M phosphate buffer (pH 8.0, containing BSA (0.1 mg/mL)), 1.5 mg of the 14-residue peptide thus synthesized (SEQ ID NO:16) was dissolved to prepare a 1 mM solution. This solution was diluted to prepare substrate solutions having concentrations of 1 mM, 500 μM, 333 μM, 250 μM, and 200 μM. Separately, chymotrypsin (1 mg) was dissolved in 1 mL of a 0.1 M phosphate buffer (pH 8.0, containing BSA (0.1 mg/mL)). The resulting solution was diluted 10-fold, and further diluted 10-fold. The above operation was repeated so that a solution of 0.1 μg/mL was prepared. Into the same Eppendorf tube, 50 μL of a substrate solution of each concentration that was sufficiently cooled on ice and 50 μL of the enzyme solution were transferred, followed by incubation for 30 minutes at 37° C. After 30 minutes, the reaction was terminated by addition of 10 μL of 1N hydrochloric acid. Then, 20 μL of the resulting reaction solution was mixed with 80 μL of buffer to make up a total of 100 μL, which was then measured by HPLC. A degradation rate per unit time (a reaction rate per unit time) was calculated from the peak area of HPLC of the reaction product (FIG. 37).

Chymotrypsin [2] = target: T1, Chymotrypsin; experiment: Michaelis-Menten plot of the substrate peptide (degradation by chymotrypsin); format: biochemical; parameters: unit not given here; conditions: 30 minutes at 37° C.
Description: Into 1 mL of a 0.1 M phosphate buffer (pH 8.0, containing BSA (0.1 mg/mL)), 3.1 mg of the 14-residue peptide thus synthesized (SEQ ID NO:16) was dissolved to prepare a 2 mM solution. This solution was diluted to prepare substrate solutions having concentrations of 1.6 mM, 1.2 mM, 0.8 mM, 0.4 mM, 0.2 mM, 0.1 mM, and 0.05 mM. Separately, chymotrypsin (1 mg) was dissolved in 1 mL of a 0.1 M phosphate buffer (pH 8.0, containing BSA (0.1 mg/mL)). The resulting solution was diluted 10-fold, and further diluted 10-fold. The above operation was repeated so that a solution of 0.1 μg/mL was prepared. Into the same Eppendorf tube, 50 μL of a substrate solution of each concentration that was sufficiently cooled on ice and 50 μL of the enzyme solution were transferred, followed by incubation for 30 minutes at 37° C. After 30 minutes, the reaction was terminated by addition of 10 μL of 1N hydrochloric acid. Then, 20 μL of the resulting reaction solution was mixed with 80 μL of buffer to make up a total of 100 μL, which was then measured by HPLC. A degradation rate per unit time (a reaction rate per unit time) was calculated from the peak area of HPLC of the reaction product (FIG. 36).

For `C[C@@H](O)[C@H](NC(=O)[C@H](CCCCN)NC(=O)[C@H](CC(N)=O)NC(=O)[C@H](CC(=O)O)NC(=O)[C@H](CO)NC(=O)CNC(=O)[C@@H]1CSCN1)C(=O)N[C@@H](Cc1ccc(O)cc1)C(=O)NCC(=O)N[C@@H](CC(N)=O)C(=O)N[C@@H](CCCCN)C(=O)N[C@@H](CS)C(=O)N[C@@H](CC(N)=O)C(=O)N[C@@H](Cc1ccccc1)C(=O)O` [substrate peptide] (H-[Thz]GSDNKTYGNKCNF-OH), the “1/V (inverse of the reaction rate)” value (Chymotrypsin [1]; 1/Substrate 2 1/mM) was 7.02 mol⁻¹ min⁻¹, the “1/V (inverse of the reaction rate)” value (Chymotrypsin [1]; 1/Substrate 4 1/mM) was 8.51 mol⁻¹ min⁻¹ and the “1/V (inverse of the reaction rate)” value (Chymotrypsin [1]; 1/Substrate 6 1/mM) was 11.9 mol⁻¹ min⁻¹. For the same compound, the “1/V (inverse of the reaction rate)” value (Chymotrypsin [1]; 1/Substrate 8 1/mM) was 10.9 mol⁻¹ min⁻¹, the “1/V (inverse of the reaction rate)” value (Chymotrypsin [1]; 1/Substrate 10 1/mM) was 14.7 mol⁻¹ min⁻¹ and the “V (reaction rate per unit time)” value (Chymotrypsin [2]; substrate 0.05 mM) was 0.013. The “V (reaction rate per unit time)” value (Chymotrypsin [2]; substrate 0.1 mM) was 0.027, the “V (reaction rate per unit time)” value (Chymotrypsin [2]; substrate 0.2 mM) was 0.046 and the “V (reaction rate per unit time)” value (Chymotrypsin [2]; substrate 0.4 mM) was 0.068. For the same compound, the “V (reaction rate per unit time)” value (Chymotrypsin [2]; substrate 0.6 mM) was 0.075, the “V (reaction rate per unit time)” value (Chymotrypsin [2]; substrate 0.8 mM) was 0.083 and the “V (reaction rate per unit time)” value (Chymotrypsin [2]; substrate 1 mM) was 0.087.

Reference: patent US20110262945A1, “GLYCOPROTEIN PRODUCTION METHOD AND SCREENING METHOD” (OTSUKA CHEMICAL CO., LTD., priority 2008, published 2011)
